Assay [1] can be described thus: Glutathione peroxidase like activity assessed as hydrogen peroxide reduction by measuring reaction rate at 0.1 mM measured for 180 sec in presence of PhSH relative to (PhSe)2.
Assay [2] can be described thus: Glutathione peroxidase like activity assessed as hydrogen peroxide reduction by measuring reaction rate at 0.1 mM measured for 180 sec in presence of PhSH relative to control.
A short description of assay [3]: Inhibition of almond beta-glucosidase using p-Nitrophenyl beta-D-glucopyranoside as substrate. Further details: species or system Prunus dulcis.
Assay [4] in a line: Inhibition of Bakers yeast alpha-glucosidase using p-Nitrophenyl alpha-D-glucopyranoside as substrate. Further details: species or system Saccharomyces cerevisiae.
Assay [5] has as its target T1, Acetylcholinesterase (Electrophorus electricus, UniProt O42275). The assay is described as follows: Mixed-type inhibition of electric eel acetylcholinesterase assessed as enzyme-inhibitor complex by Lineweaver-Burk plot method.
Assay [6] relates to Aspergillus oryzae. The assay is described as follows: Inhibition of Aspergillus oryzae beta-galactosidase at 0.5 mM using o-orp-nitrophenyl-glycopyranoside as substrate measured for 120 sec relative to control.
Assay [7] concerns the target T2, Alpha-mannosidase (Canavalia ensiformis, UniProt C0HJB3).
T2 sequence (C0HJB3 whole entry): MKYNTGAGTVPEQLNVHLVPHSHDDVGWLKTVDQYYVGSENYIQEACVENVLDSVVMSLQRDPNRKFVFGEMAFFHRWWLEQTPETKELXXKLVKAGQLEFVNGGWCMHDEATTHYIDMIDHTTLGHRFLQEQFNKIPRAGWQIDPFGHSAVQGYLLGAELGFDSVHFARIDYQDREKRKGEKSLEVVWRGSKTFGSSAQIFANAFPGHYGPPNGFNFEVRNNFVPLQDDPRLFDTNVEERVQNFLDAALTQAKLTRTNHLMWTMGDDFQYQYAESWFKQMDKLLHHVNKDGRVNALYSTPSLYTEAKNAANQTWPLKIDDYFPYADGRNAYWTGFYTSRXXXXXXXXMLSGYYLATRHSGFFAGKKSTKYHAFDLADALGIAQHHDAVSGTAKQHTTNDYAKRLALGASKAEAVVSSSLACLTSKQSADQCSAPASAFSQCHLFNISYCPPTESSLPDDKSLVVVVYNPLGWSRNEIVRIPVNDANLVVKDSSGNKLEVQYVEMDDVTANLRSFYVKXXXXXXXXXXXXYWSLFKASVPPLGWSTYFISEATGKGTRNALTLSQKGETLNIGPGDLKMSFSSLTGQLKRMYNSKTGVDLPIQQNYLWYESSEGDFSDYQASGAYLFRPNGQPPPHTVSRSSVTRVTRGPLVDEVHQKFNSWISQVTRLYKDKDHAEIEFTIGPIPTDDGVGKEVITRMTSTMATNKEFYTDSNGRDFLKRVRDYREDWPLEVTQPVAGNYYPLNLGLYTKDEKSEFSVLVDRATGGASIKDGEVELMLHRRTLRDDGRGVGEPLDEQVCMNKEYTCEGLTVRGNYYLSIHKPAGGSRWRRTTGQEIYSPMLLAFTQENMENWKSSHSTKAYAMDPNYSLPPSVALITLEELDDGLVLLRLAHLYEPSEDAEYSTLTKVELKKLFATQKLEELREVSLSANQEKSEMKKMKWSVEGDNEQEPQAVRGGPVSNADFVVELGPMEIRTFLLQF
Description: Mixed-type inhibition of jack bean alpha-mannosidase assessed as enzyme-substrate-inhibitor complex using o-orp-nitrophenyl-glycopyranoside as substrate by Lineweaver-Burk plot method.

In assay [8] the target is Acetylcholinesterase (Electrophorus electricus) (UniProt O42275). Description: Inhibition of electric eel acetylcholinesterase at 500 uM assessed as thep-nitrophenolate formation measured for 120 sec relative to control.
Acetylcholinesterase (Electrophorus electricus), sequence (O42275 24-633 limits assumed): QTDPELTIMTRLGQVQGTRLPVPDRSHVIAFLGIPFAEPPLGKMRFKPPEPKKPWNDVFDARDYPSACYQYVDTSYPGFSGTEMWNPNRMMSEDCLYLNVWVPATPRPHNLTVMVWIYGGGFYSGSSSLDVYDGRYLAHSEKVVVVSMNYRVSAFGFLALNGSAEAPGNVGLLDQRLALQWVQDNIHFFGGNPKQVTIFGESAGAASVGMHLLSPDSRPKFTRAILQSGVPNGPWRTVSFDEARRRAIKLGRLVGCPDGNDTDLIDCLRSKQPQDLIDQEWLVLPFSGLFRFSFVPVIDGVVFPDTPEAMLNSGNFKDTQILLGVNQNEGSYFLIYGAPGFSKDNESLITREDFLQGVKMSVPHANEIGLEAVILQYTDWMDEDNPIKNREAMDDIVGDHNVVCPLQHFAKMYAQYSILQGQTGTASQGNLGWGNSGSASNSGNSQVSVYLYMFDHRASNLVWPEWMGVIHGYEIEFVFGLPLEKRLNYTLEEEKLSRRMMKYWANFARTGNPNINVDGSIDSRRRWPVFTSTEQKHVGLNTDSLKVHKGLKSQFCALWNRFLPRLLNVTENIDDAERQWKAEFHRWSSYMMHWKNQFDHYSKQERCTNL
Assay [9] deals with Helix pomatia. The assay is described as follows: Inhibition of Helix-pomatia beta-mannosidase at 0.5 mM using o-orp-nitrophenyl-glycopyranoside as substrate measured every 30 sec for 3 mins relative to control.
Assay [10] in a line: Antiproliferative activity against human WiDr cells after 48 hrs by sulforhodamine B assay. In kind it is functional. In general terms: In SRB staining, fixed cells bind dye roughly in proportion to their protein.
Assay [11] can be described thus: Antiproliferative activity against human T47D cells after 48 hrs by sulforhodamine B assay. In kind it is functional.
For assay [12], the system named is Saccharomyces cerevisiae. The assay is described as follows: Inhibition of Bakers yeast alpha-glucosidase at 500 uM using o-orp-nitrophenyl-glycopyranoside as substrate measured for 120 sec relative to control.
Assay [13] in a line: Glutathione peroxidase like activity assessed as hydrogen peroxide reduction by measuring Kcat to Kuncat ratio measured for 180 sec in prescence of varying levels of Phsh by Hanes-Woof plot method.
In assay [14] the test system is Prunus dulcis. The assay is described as follows: Inhibition of almond beta-glucosidase at 500 uM using o-orp-nitrophenyl-glycopyranoside as substrate measured for 120 sec relative to control.
Assay [15] has as its target T3, Alpha-mannosidase (Canavalia ensiformis) (UniProt C0HJB3).
T3 sequence (whole entry): T2 sequence (C0HJB3 whole entry)
Description: Inhibition of jack bean alpha-mannosidase at 0.5 mM using o-orp-nitrophenyl-glycopyranoside as substrate measured every 30 sec for 3 mins relative to control.

The nature of assay [16]: Antiproliferative activity against human HeLa cells after 48 hrs by sulforhodamine B assay. In kind it is functional.
Assay [17] can be described thus: Glutathione peroxidase like activity assessed as hydrogen peroxide reduction by measuring compound Kcat measured for 180 sec in prescence of varying levels of Phsh by Hanes-Woof plot method.
The target in assay [18] is T2, Alpha-mannosidase. The assay is described as follows: Mixed-type inhibition of jack bean alpha-mannosidase assessed as enzyme-inhibitor complex using o-orp-nitrophenyl-glycopyranoside as substrate by Lineweaver-Burk plot method.
Assay [19] is described as follows: Selectivity ratio of Ki for Bakers yeast alpha-glucosidase to Ki for almond beta-glucosidase.
Assay [20] in a line: Competitive inhibition of almond beta-glucosidase using o-orp-nitrophenyl-glycopyranoside as substrate by Lineweaver-Burk plot method. Further details: species or system Prunus dulcis.
A short description of assay [21]: Antiproliferative activity against human A549 cells after 48 hrs by sulforhodamine B assay. The assay is classed as functional. The settings on record: A549, 48 h.
Assay [22] can be described thus: Antiproliferative activity against human HBL100 cells after 48 hrs by sulforhodamine B assay. The note with it: HBL-100, 48 h. In kind it is functional.
The target of assay [23] is Alpha-galactosidase (Coffea arabica) (UniProt Q42656). The assay is described as follows: Inhibition of green coffee beans alpha-galactosidase at 0.5 mM using o-orp-nitrophenyl-glycopyranoside as substrate measured for 120 sec relative to control.
Alpha-galactosidase (Coffea arabica), sequence (Q42656 16-378 limits assumed): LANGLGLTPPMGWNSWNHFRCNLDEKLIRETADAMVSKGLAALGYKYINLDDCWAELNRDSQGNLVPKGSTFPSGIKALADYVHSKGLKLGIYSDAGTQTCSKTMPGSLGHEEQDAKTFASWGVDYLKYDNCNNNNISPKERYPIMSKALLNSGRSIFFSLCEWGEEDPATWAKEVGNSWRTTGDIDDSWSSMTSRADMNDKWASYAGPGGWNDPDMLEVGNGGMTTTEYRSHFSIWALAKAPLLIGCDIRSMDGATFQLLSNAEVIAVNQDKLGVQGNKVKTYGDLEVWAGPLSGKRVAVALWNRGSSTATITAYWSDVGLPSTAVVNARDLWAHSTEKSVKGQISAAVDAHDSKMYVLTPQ
Assay [24] can be described thus: Inhibition of Bakers yeast alpha-glucosidase using o-orp-nitrophenyl-glycopyranoside as substrate by Lineweaver-Burk plot method. The arrangement: species or system Saccharomyces cerevisiae.
Assay [25] in a line: Glutathione peroxidase like activity assessed as hydrogen peroxide reduction by measuring compound Km measured for 180 sec in prescence of varying levels of Phsh by Hanes-Woof plot method.
The nature of assay [26]: Glutathione peroxidase like activity assessed as hydrogen peroxide reduction by measuring compound Vmax measured for 180 sec in prescence of varying levels of Phsh by Hanes-Woof plot method.
Assay [27] can be described thus: Antiproliferative activity against human SW1573 cells after 48 hrs by sulforhodamine B assay. In kind it is functional. The settings on record: SW1573, 48 h.
The test system of assay [28] is Escherichia coli. The assay is described as follows: Inhibition of Escherichia coli beta-galactosidase at 0.5 mM using o-orp-nitrophenyl-glycopyranoside as substrate measured for 120 sec relative to control.
Assay [29] deals with T1, Acetylcholinesterase. The assay is described as follows: Mixed-type inhibition of electric eel acetylcholinesterase assessed as enzyme-substrate-inhibitor complex by Lineweaver-Burk plot method.
In assay [30] the target is T2, Alpha-mannosidase. Description: Inhibition of jack bean alpha-mannosidase using o-orp-nitrophenyl-glycopyranoside as substrate by Lineweaver-Burk plot method.

pKi: −log10 of the molar value.

T1 sequence (O42275 whole entry): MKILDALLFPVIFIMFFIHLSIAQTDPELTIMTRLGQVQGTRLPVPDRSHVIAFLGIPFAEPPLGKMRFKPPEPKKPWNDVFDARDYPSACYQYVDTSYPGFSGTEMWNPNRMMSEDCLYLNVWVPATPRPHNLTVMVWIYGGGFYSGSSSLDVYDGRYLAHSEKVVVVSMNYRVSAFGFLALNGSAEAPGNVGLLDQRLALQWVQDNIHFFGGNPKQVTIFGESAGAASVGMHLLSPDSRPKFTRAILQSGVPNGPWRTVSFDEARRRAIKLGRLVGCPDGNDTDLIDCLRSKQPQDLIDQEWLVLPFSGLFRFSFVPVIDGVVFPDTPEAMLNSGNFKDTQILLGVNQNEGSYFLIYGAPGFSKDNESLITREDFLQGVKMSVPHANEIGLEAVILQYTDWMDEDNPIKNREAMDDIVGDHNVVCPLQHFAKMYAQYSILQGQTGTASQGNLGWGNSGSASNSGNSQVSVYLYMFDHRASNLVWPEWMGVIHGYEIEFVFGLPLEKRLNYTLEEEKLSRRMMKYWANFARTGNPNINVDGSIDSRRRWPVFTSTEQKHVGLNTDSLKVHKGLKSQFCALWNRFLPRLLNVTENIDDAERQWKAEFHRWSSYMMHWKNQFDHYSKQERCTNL

With `c1ccc(COC[C@H]2NC[C@H](OCc3ccccc3)[C@@H](OCc3ccccc3)[C@@H]2OCc2ccccc2)cc1`, the fold change (FC) in assay [1] was 18; in assay [2], 23.6 to 46.1.
With `OC[C@H]1NC[C@H](O)[C@@H](O)[C@@H]1O` [DUVOGLUSTAT], the results for the pKi in assay [3] and in assay [4] were 4.33 and 4.60, respectively.
As to `OC[C@@H]1[C@@H](O)[C@H](O)[C@@H](O)CN1CCCCCNC(=[Se])Nc1ccc(Br)cc1`, the pKi is 5.24 in [5]; 3.54 in [7]; 3.41 in assay [18]; 5.80 in assay [20]; 4.51 in assay [24]; 4.95 in assay [29]. Further, the inhibition in [6] is 42%; in [8], above 50%; in [9] it was 18%; in [12], above 50%; in [14], above 50%; in [15], above 50%. The inhibition was found to be 7% in assay [23] and 12% in [28]. The GI50 in assay [10] came to 21 µM; in assay [11] it was 12 µM; in assay [16] it was 27 µM; in assay [21], 7 µM; in [22], 7.6 µM; in assay [27] it was 24 µM. The Ratio in assay [13] is 292. In addition, the kcat in [17] came to 0.016 s⁻¹. Also, the Ratio Ki in assay [19] was below 36. Also, in assay [25], the Km was found to be 330 µM. The Vmax in [26] was determined as 96.4 µM/min.
`Cc1ccc(NC(=[Se])NCCCCCN2C[C@H](O)[C@@H](O)[C@H](O)[C@H]2CO)cc1`: the pKi in assay [5] was 3.98; in assay [20], 5.43; in assay [24], 4.46; in [29], 4.77. Moreover, the inhibition was 20% in assay [6]; above 50% in [8]; 16% in [9]; above 50% in [12]; above 50% in assay [14]; 46% in assay [15]. Besides, the inhibition was 2% in [23] and 31% in [28]. Further, the GI50 in assay [10] was found to be 97 µM; in assay [11], 68 µM; in assay [16], 75 µM; in [21] it was 45 µM; in assay [22], 76 µM; in [27], 79 µM.
Turning to `O=c1c2ccccc2[se]n1-c1ccccc1`, in [2], the fold change (FC) was found to be 0.6.
With `COc1ccc(NC(=[Se])NCCCCCN2C[C@H](O)[C@@H](O)[C@H](O)[C@H]2CO)cc1`, the pKi in assay [5] is 4.08; in assay [20], 5.26; in assay [24], 4.44; in assay [30], 3.29; in [29] it was 4.23. For the same compound, the inhibition in assay [6] is 29%; in assay [8], above 50%; in [9], 7%; in assay [12], above 50%; in assay [14], above 50%; in assay [15], above 50%. For the same compound, the inhibition in assay [23] is 20%; in assay [28] it was 15%. Moreover, the GI50 was above 100 µM in assay [10]; 58 µM in assay [11]; 82 µM in [16]; 42 µM in assay [21]; 42 µM in assay [22]; 46 µM in assay [27]. The Ratio in [13] came to 640. Further, in assay [17], the kcat was 0.035 s⁻¹. For the same compound, the Km in assay [25] was 410 µM. For the same compound, the Vmax in assay [26] was found to be 211 µM/min.
Turning to `c1ccc([Se][Se]c2ccccc2)cc1`, the Ratio in [13] stood at 82. Besides, the kcat in assay [17] is 0.0045 s⁻¹. Also, the fold change (FC) in assay [2] was 2.5. The Km in assay [25] is 1110 µM. Moreover, the Vmax in assay [26] came out at 27.3 µM/min.

By pKi is commonly meant the Ki on a negative log10 scale, so that one unit is a factor of ten. Broadly, the inhibition is the share of the control response that was lost under treatment. As a reminder, the GI50 is the concentration at which growth is held to half of that of the control. A lower GI50 goes with greater sensitivity of the cells. Broadly, the kcat is the number of substrate molecules converted per active site and unit of time at saturation. Usually Km stands for the concentration of substrate that gives half-maximal velocity. As usually defined, the Vmax is the rate approached at saturating substrate.

These data come from ChEMBL document CHEMBL3870306, “Selenoureido-iminosugars: A new family of multitarget drugs” (Eur J Med Chem, 2016).
